Results as given in ChEMBL document CHEMBL1201862, “PubChem BioAssay data set” (2004).
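These data come from cells grown in 96-well plates and exposed to compound for 48 hours at five concentrations. At the GI50, growth is halved.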 Active and inactive are the calls of the source. Cut-off read from the data, not from the text of the source: active = GI50 up to about 1.1 µM and inactive = higher.

What was measured:
Assay in all cases: NCI-60 cell line screen, 48 h
A549 = tested on: A549
EKVX = tested on: EKVX
IGROV-1 = tested on: IGROV-1
K562 = tested on: K562
LOX IMVI = tested on: LOX IMVI
M14 = tested on: M14
MOLT-4 = tested on: MOLT-4
NCI-H226 = tested on: NCI-H226
OVCAR-3 = tested on: OVCAR-3
SF-539 = tested on: SF-539
SK-MEL-5 = tested on: SK-MEL-5
SK-OV-3 = tested on: SK-OV-3
SNB-19 = tested on: SNB-19
UACC-62 = tested on: UACC-62
A498 = tested on: A498

Measured: GI50

CCOc1ccc(/N=N/c2c(-c3ccccc3)nn(C(=O)CC(=O)Nc3ccccc3Cl)c2-c2ccccc2)cc1
inactive: A549 67.3 µM | EKVX 44 µM | IGROV-1 > 100 µM | K562 30.2 µM | LOX IMVI 42.2 µM | M14 > 100 µM | MOLT-4 34.1 µM | NCI-H226 65.9 µM | OVCAR-3 35.8 µM | SF-539 58.3 µM | SK-MEL-5 44.6 µM | SK-OV-3 > 100 µM | SNB-19 > 100 µM | UACC-62 77.1 µM

Clc1cccc(C2SCc3nc4ccccc4n32)c1Cl (stereo not drawn)
inactive: A498 15.2 µM | A549 17.9 µM | EKVX 16.2 µM | IGROV-1 16.6 µM | K562 12.8 µM | M14 16.6 µM | MOLT-4 11.1 µM | OVCAR-3 19 µM | SF-539 17.2 µM | SK-MEL-5 14.1 µM | SK-OV-3 20.1 µM | SNB-19 18 µM | UACC-62 19.7 µM

O=CC1=CCCN(CCc2c[nH]c3ccccc23)C1
inactive: A549 186 µM | EKVX 84.7 µM | IGROV-1 86.5 µM | K562 23.6 µM | LOX IMVI 6.47 µM | MOLT-4 13.2 µM | NCI-H226 46.3 µM | OVCAR-3 42.6 µM | SF-539 54 µM | SK-MEL-5 62.8 µM | SK-OV-3 86.5 µM | SNB-19 45.2 µM | UACC-62 58.3 µM

CC(C)(C)CC(C)(C)c1cc2c(O)c(c1)Cc1cc(C(C)(C)CC(C)(C)C)cc(c1O)Cc1cc(C(C)(C)CC(C)(C)C)cc(c1O)Cc1cc(C(C)(C)CC(C)(C)C)cc(c1O)C2
inactive: A549 > 100 µM | EKVX > 100 µM | IGROV-1 > 100 µM | K562 > 100 µM | M14 > 100 µM | MOLT-4 > 100 µM | OVCAR-3 > 100 µM | SF-539 > 100 µM | SK-MEL-5 > 100 µM | SNB-19 > 100 µM | UACC-62 > 100 µM

Nc1nc2c3nc(Nc4ccccc4)sc3nc(=O)n2c2sc(Nc3ccccc3)nc12
inactive: A498 > 100 µM | A549 > 100 µM | EKVX > 100 µM | IGROV-1 > 100 µM | K562 > 100 µM | M14 > 100 µM | MOLT-4 > 100 µM | NCI-H226 > 100 µM | SF-539 > 100 µM | SK-MEL-5 > 100 µM | SK-OV-3 > 100 µM | SNB-19 > 100 µM | UACC-62 > 100 µM

N=C1N(c2ccccc2)C(=O)C23CCCC2C13N1CCOCC1 (stereo not drawn)
inactive: A549 > 100 µM | EKVX > 100 µM | IGROV-1 > 100 µM | K562 > 100 µM | M14 > 100 µM | MOLT-4 > 100 µM | NCI-H226 > 100 µM | OVCAR-3 > 100 µM | SF-539 > 100 µM | SK-MEL-5 > 100 µM | SK-OV-3 > 100 µM | SNB-19 > 100 µM | UACC-62 > 100 µM

C/C=C/COC(=O)CO[N+](=O)[O-]
inactive: A549 > 100 µM | EKVX > 100 µM | IGROV-1 > 100 µM | K562 > 100 µM | LOX IMVI > 100 µM | M14 > 100 µM | MOLT-4 > 100 µM | NCI-H226 > 100 µM | OVCAR-3 > 100 µM | SF-539 > 100 µM | SK-OV-3 > 100 µM | SNB-19 > 100 µM | UACC-62 > 10 µM

COC1(OC)CC2OC1C1N=NN(C(=O)OC(C)(C)C)C21 (stereo not drawn)
inactive: A498 > 100 µM | A549 > 100 µM | IGROV-1 > 100 µM | K562 36 µM | LOX IMVI > 100 µM | M14 > 100 µM | MOLT-4 35.2 µM | NCI-H226 > 100 µM | OVCAR-3 49.3 µM | SF-539 > 100 µM | SK-MEL-5 > 100 µM | SK-OV-3 > 100 µM | UACC-62 > 100 µM

CCCCC(/C=N/NC(=N)N)CC.Cc1cc(O)c(C(C)C)cc1S(=O)(=O)O
inactive: A549 65.8 µM | EKVX 30.8 µM | IGROV-1 92.9 µM | K562 26.5 µM | LOX IMVI 57.1 µM | M14 36.2 µM | MOLT-4 36.1 µM | NCI-H226 18.2 µM | OVCAR-3 37.2 µM | SF-539 87.5 µM | SK-OV-3 59.8 µM | SNB-19 60 µM | UACC-62 84.1 µM

O=C1C(=O)N(C(=O)c2ccc(Cl)c(Cl)c2)c2ccccc21
inactive: A549 > 100 µM | EKVX > 100 µM | IGROV-1 > 100 µM | K562 > 100 µM | LOX IMVI > 100 µM | M14 > 100 µM | MOLT-4 > 100 µM | NCI-H226 44.9 µM | OVCAR-3 > 100 µM | SF-539 > 100 µM | SK-MEL-5 > 100 µM | SK-OV-3 > 100 µM | SNB-19 > 100 µM | UACC-62 > 100 µM

Clc1ccc(C2N3CCCCC3[C@@H]3c4[nH]c5ccccc5c4CCN23)cc1 (stereo partly drawn)
inactive: A498 94.4 µM | A549 79.6 µM | EKVX 81.7 µM | IGROV-1 > 100 µM | K562 38 µM | M14 38.3 µM | MOLT-4 64.7 µM | OVCAR-3 50.5 µM | SF-539 44.1 µM | SK-MEL-5 59 µM | SK-OV-3 > 100 µM | SNB-19 93.3 µM | UACC-62 50.6 µM
